Measurements published in patent US20150342968A1, “STABLE PHARMACEUTICAL COMPOSITION FOR TREATING OSTEOPOROSIS” (LANDSTEINER SCIENTIFIC S.A. DE C.V., priority 2012, published 2015).
Values joined by “and” are separate entries in the source; they are usually repeats but may differ in a detail not shown here. Equal values may be shown once.

Assays:
[1] = Dissolution acid stage (gastro-resistance) of tablets of composition in Table 1; type: physicochemical
Procedure: (§1) Two stability tests of vitamin D3 and risedronate sodium were performed at different conditions by subjecting the tablets that were prepared according to the composition in Table 1. The conditions were as follows:
The product complies with the gastro-resistant stage, because it has an enteric coating to protect the mucous membranes while it passes through the gastrointestinal system.

[2] = Dissolution buffer stage pH 6.8 of tablets of composition in Table 1; type: physicochemical
Procedure: as §1
It is evident that the risedronate sodium dissolves quickly in a medium with pH 6.8, obtaining more than 100% in the first 10 minutes.

[3] = Evaluation of the stability of risedronate sodium in tablets of composition in Table 1; type: physicochemical
Procedure: as §1
(§2) Two batches of the composition were subjected to different conditions to evaluate the stability of vitamin D3 and risedronate sodium. The conditions were the following: 30° C./65% RH, 40° C./75% RH and Cycled 40° C./75% RH-Cooling (2°-8° C.). The samples were submitted for 4 weeks and the following results were obtained.
Evaluation of the Stability of Risedronate Sodium

[4] = cited from earlier work
[5] = cited from earlier work; remark: listed apart in the source
[6] = Evaluation of the stability of vitamin D3 in tablets of composition in Table 1; type: physicochemical
Procedure: as §1
Evaluation Of The Stability Of Vitamin D3
as §2

O=P(O)(O)C(O)(Cc1cccnc1)P(=O)(O)O [Risedronate sodium, risedronate sodium]
Risedronate sodium Acid Stage % Dissolved ([1]; individual samples S1-S6, specification no more than 10.0%): 0.97% and 0.56% and 0.80% and 0.95% and 1.19% and 0.71% | Risedronate sodium Acid Stage % Dissolved, Maximum ([1]; maximum of S1-S6): 1.19% | Risedronate sodium Acid Stage % Dissolved, Mean ([1]; mean of S1-S6): 0.86% | Risedronate sodium Acid Stage % Dissolved, Minimum ([1]; minimum of S1-S6): 0.56% | Dissolution buffer stage, dissolved ([2]; pH 6.8, 5 min): 94.08% | Dissolution buffer stage, dissolved ([2]; pH 6.8, 10 min): more than 100% | Dissolution buffer stage, dissolved ([2]; pH 6.8, 10 min, listed as Risedronate Sodium 35 mg): 100.93% | Dissolution buffer stage, dissolved ([2]; pH 6.8, 15 min): 100.84% | Dissolution buffer stage, dissolved ([2]; pH 6.8, 20 min): 100.94% | Dissolution buffer stage, dissolved ([2]; pH 6.8, 30 min): 100.12% | Dissolution buffer stage, dissolved ([2]; pH 6.8, 45 min): 100.48% | Risedronate sodium stability, Final ([3]; Test 1, final (4 weeks)): 100.66% | Risedronate sodium stability, Initial ([3]; Test 1, initial): 102.55% | Risedronate sodium stability, Final ([3]; Test 2, final (4 weeks)): 96.75% | Risedronate sodium stability, Initial ([3]; Test 2, initial): 100.99% | injected dose recovered in the urine ([4]; after 28 days): 85% | Tmax ([4]; after an oral dose): ~1 h | part of the absorbed dose excreted in the urine ([4]; first 24 hours): One half | mean volume of distribution at steady state equilibrium ([4]; humans): 6.3 L/kg | plasmatic protein binding [5]: 24%

C=C1CC[C@H](O)C/C1=C/C=C1\CCC[C@]2(C)[C@@H]([C@H](C)CCCC(C)C)CC[C@@H]12 [Vitamin D3, cholecalciferol]
Vitamin D3 rating (stability) ([6]; Test 1, week 0, 30° C./65% RH): 100.00% | Vitamin D3 rating (stability) ([6]; Test 1, week 0, 40° C./75% RH): 100.00% | Vitamin D3 rating (stability) ([6]; Test 1, week 0, Cycled 40° C./75% RH-cooling): 100.00% | Vitamin D3 rating (stability) ([6]; Test 1, week 1, 30° C./65% RH): 102.02% | Vitamin D3 rating (stability) ([6]; Test 1, week 1, 40° C./75% RH): 98.34% | Vitamin D3 rating (stability) ([6]; Test 1, week 1, Cycled 40° C./75% RH-cooling): 98.69% | Vitamin D3 rating (stability) ([6]; Test 1, week 2, 30° C./65% RH): 99.20% | Vitamin D3 rating (stability) ([6]; Test 1, week 2, 40° C./75% RH): 98.12% | Vitamin D3 rating (stability) ([6]; Test 1, week 2, Cycled 40° C./75% RH-cooling): 97.90% | Vitamin D3 rating (stability) ([6]; Test 1, week 4, 30° C./65% RH): 96.39% | Vitamin D3 rating (stability) ([6]; Test 1, week 4, 40° C./75% RH): 96.03% | Vitamin D3 rating (stability) ([6]; Test 1, week 4, Cycled 40° C./75% RH-cooling): 96.09% | Vitamin D3 rating (stability) ([6]; Test 2, week 0, 30° C./65% RH): 100.00% | Vitamin D3 rating (stability) ([6]; Test 2, week 0, 40° C./75% RH): 100.00% | Vitamin D3 rating (stability) ([6]; Test 2, week 0, Cycled 40° C./75% RH-cooling): 100.00% | Vitamin D3 rating (stability) ([6]; Test 2, week 1, 30° C./65% RH): 97.34% | Vitamin D3 rating (stability) ([6]; Test 2, week 1, 40° C./75% RH): 99.62% | Vitamin D3 rating (stability) ([6]; Test 2, week 1, Cycled 40° C./75% RH-cooling): 95.55% | Vitamin D3 rating (stability) ([6]; Test 2, week 2, 30° C./65% RH): 96.93% | Vitamin D3 rating (stability) ([6]; Test 2, week 2, 40° C./75% RH): 97.80% | Vitamin D3 rating (stability) ([6]; Test 2, week 2, Cycled 40° C./75% RH-cooling): 96.31% | Vitamin D3 rating (stability) ([6]; Test 2, week 4, 30° C./65% RH): 94.79% | Vitamin D3 rating (stability) ([6]; Test 2, week 4, 40° C./75% RH): 96.32% | Vitamin D3 rating (stability) ([6]; Test 2, week 4, Cycled 40° C./75% RH-cooling): 94.79% | decrease in the vitamin D3 rating ([6]; over the four weeks under the different conditions): 5.96%
